Assay results published in patent US5935606A, “Reversing excitotoxic CNS damage by cellular implantation” (priority 1995, dated 1999).

Tests used:
[1] = biological target: NMDA receptors; assay: [3H]CGP-39653 saturation binding, spinal cord membranes; conditions: normal rat whole spinal cord; one-site binding
Method: (§1) Changes in NMDA receptor levels were determined at three weeks following nerve injury (one week following transplantation), as a marked distinction in responses to sensory stimuli between adrenal medullary and control transplanted animals can be made at this time point. […] [^3 H]CGP-39653 (D,L-(E)-2-amino-4-propyl-5-phosphono-3-pentenoate), a selective high-affinity competitive antagonist at NMDA receptors, was used to label the binding sites. In preliminary experiments, binding characteristics of this ligand were determined in the rat spinal cord. Saturation assays were performed on whole spinal cord tissue, and the results compared to those obtained in cortical membranes. NMDA binding sites were analyzed using previously described procedures with slight modification [M. A. Sills et al., Eur. J. Pharmacol., 192:19-24 (1991)]. Animals were decapitated and the spinal cords were rapidly extruded with saline pressure. […] This volume of tissue corresponded to approximately 110 μg of protein as determined using the Bradford method (BioRad, Richmond, Calif.). […] Nonspecific binding was determined in parallel tubes containing 100 mM L-glutamiate. […] Radioactivity was counted with a Beckman 3270 scintillation counter at 48-52% efficiency. Estimates of binding parameters were determined using the program LIGAND [P. J. Munson and D. Rodbard, Anal. Biochem., 197:220-239 (1980)].

[2] = biological target: NMDA receptors; assay: [3H]CGP-39653 saturation binding, cortical membranes; conditions: normal rat cortex; one-site binding
Method: as §1

[3] = test system: NMDA receptor; assay: NMDA-induced thermal hyperalgesia (Hargreaves paw withdrawal latency) in rats with spinal subarachnoid transplants; type: in vivo, rat; conditions: for effect of antagonist pretreatment on NMDA dose-response curve, noxious thermal stimuli, compared to saline pretreatment: adrenal medullary transplanted animals, s.c. 20 min prior to NMDA (2.5, 5.0, 10.0 nmol), naloxone 2.0 mg/kg, phentolamine 10.0 mg/kg
Method: (§2) Experimental procedures were approved and carried out in accordance the Guidelines of the Animal Care Committee, University of Illinois at Chicago. Male Sprague-Dawley rats weighing 325-375 g (Sasco, Madison, Wis.) at the beginning of the study were used as both graft donors and recipients. Graft recipients were anesthetized (Nembutal, 40 mg/kg, i.p., supplemented as necessary) and implanted with intrathecal catheters according to methods described by Yaksh and Rudy [T. L. Yaksh and T. A. Rudy, Physiol. Behav., 17:1031-1036 (1976)]. Catheters were made of PE10 tubing with a knot sealed with dental acrylic at 7.5 cm. The catheters were threaded through a slit in the atlanto-occipital membrane to the lumbar spinal subarachnoid space, and the free ends were anchored to the skull using cyanoacrylate. Donor adrenal medullary tissue was dissected from cortical tissue and cut into small pieces (<0.5 cm^3). Adrenal medullary tissue from two adrenal glands was used as this amount was shown in previous studies to produce significant antinociception using several behavioral tests [A. T. Hama and J. Sagen, Pain, 52:223-231 (1993); J. Sagen et al., Pain, 42:69-79 (1990); H. Wang and J. Sagen, J. Neural Transplant. Plastic., 5:49-64 (1994)]. Control animals received equal volumes of striated muscle tissue from donors. Graft tissue was implanted in the spinal subarachnoid space via laminectomy at the level of the lumbar enlargement as described previously [J. Sagen et al., Brain Res., 384:189-194 (1986); J. Sagen et al., Pain, 42:69-79 (1990)]. Following surgical procedures, musculature was sutured (4-0 silk), and the skin closed with wound clips. Animals were housed individually and allowed food and water ad libitum.
Animals were allowed to recover from surgical procedures for two weeks prior to commencement of behavioral testing. Responses to noxious and innocuous stimuli were determined using three tests sequentially: the Hargreaves model for thermal hyperalgesia [K. M. Hargreaves et al., Pain, 32:223-231 (1988)], the Randall-Selitto test for mechanical hyperalgesia, and von Frey thresholds for tactile allodynia. To assess response to a noxious thermal stimulus, rats were placed on an elevated glass floor beneath an inverted clear plastic cage, and a radiant heat source beneath the glass was aimed at the plantar surface of the hindpaw. The onset of light activated a timer which was terminated by a hindpaw withdrawal response. […] The apparatus automatically terminates at a scale reading of 25 (=1000 g). […]
(§3) The first group of animals was used in order to determine the time course and dose-responsiveness to intrathecally injected NMDA. […] Baseline responses to all three tests were assessed at the beginning of each test day prior to drug injection. […]

[4] = test system: NMDA receptor; assay: NMDA-induced mechanical hyperalgesia (Randall-Selitto test) in rats with spinal subarachnoid transplants; type: in vivo, rat; conditions: for effect of antagonist pretreatment on NMDA dose-response curve, noxious mechanical stimuli, compared to saline pretreatment: adrenal medullary transplanted animals, s.c. 20 min prior to NMDA (2.5, 5.0, 10.0 nmol), naloxone 2.0 mg/kg, phentolamine 10.0 mg/kg
Method: as §2, with “Graft tissue was implanted in the spinal subarachnoid space via laminectomy at the level of the lumbar enlargement as described previously [J. Sagen et al., Brain Res., 384:189-194 (1986); J. Sagen et al., Pain, 42:69-79 (1990)]. Following surgical procedures, musculature was sutured (4-0 silk), and the skin closed with wound clips. Animals were housed individually and allowed food and water ad libitum.” left out
(§4) Animals were allowed to recover from surgical procedures for two weeks prior to commencement of behavioral testing. Responses to noxious and innocuous stimuli were determined using three tests sequentially: the Hargreaves model for thermal hyperalgesia [K. M. Hargreaves et al., Pain, 32:223-231 (1988)], the Randall-Selitto test for mechanical hyperalgesia, and von Frey thresholds for tactile allodynia. […] The apparatus automatically terminates at a scale reading of 25 (=1000 g). […]
as §3

[5] = test system: NMDA receptor; assay: NMDA-induced tactile allodynia (von Frey thresholds) in rats with spinal subarachnoid transplants; type: in vivo, rat; conditions: adrenal medullary transplanted animals; s.c. 20 min prior to NMDA (2.5, 5.0, 10.0 nmol); naloxone 2.0 mg/kg, phentolamine 10.0 mg/kg
Method: Experimental procedures were approved and carried out in accordance the Guidelines of the Animal Care Committee, University of Illinois at Chicago. Male Sprague-Dawley rats weighing 325-375 g (Sasco, Madison, Wis.) at the beginning of the study were used as both graft donors and recipients. Graft recipients were anesthetized (Nembutal, 40 mg/kg, i.p., supplemented as necessary) and implanted with intrathecal catheters according to methods described by Yaksh and Rudy [T. L. Yaksh and T. A. Rudy, Physiol. Behav., 17:1031-1036 (1976)]. Catheters were made of PE10 tubing with a knot sealed with dental acrylic at 7.5 cm. […]
as §4, §3

Row | Structure (SMILES) | effect of antagonist pretreatment on NMDA dose-response curve, noxious thermal stimuli, compared to saline pretreatment [3] | effect of antagonist pretreatment on NMDA dose-response curve, noxious mechanical stimuli, compared to saline pretreatment [4] | effect of antagonist pretreatment on NMDA dose-response curve, innocuous tactile stimuli, compared to saline pretreatment [5] | also measured
1 | CCC/C(=C\C(N)C(=O)O)CP(=O)(O)O (racemic) [[^3 H]CGP-39653, D,L-(E)-2-amino-4-propyl-5-phosphono-3-pentenoate] |  |  |  | Kd [1]: 12.9 ± 1.8 nM; Kd [2]: 15.4 nM
2 | CN[C@H](CC(=O)O)C(=O)O [NMDA, N-methyl-D-aspartate] |  |  |  | time to significant thermal hyperalgesia in control animals ([3]; 5 nmol NMDA i.t., control transplanted animals, P<0.05): ≤ 5 min; time of peak effect, thermal hyperalgesia ([3]; intrathecally administered NMDA, all cases): 30 min; time of peak effect, mechanical hyperalgesia ([4]; intrathecal NMDA): 30 min
3 | C=CCN1CC[C@]23c4c5ccc(O)c4O[C@H]2C(=O)CC[C@@]3(O)[C@H]1C5 [naloxone] | no effect | no effect | no effect | 
4 | Cc1ccc(N(CC2=NCCN2)c2cccc(O)c2)cc1 [phentolamine] | significantly shifted the dose-response curves downward | significantly shifted the dose-response curves downward | significantly shifted the dose-response curves downward | 
